Experimental data published in patent publication US7094561B2, “Method of monitoring the menstrual cycle and/or pregnancy in a female” (University of Guelph, priority 2000, dated 2006).

What was measured:
uterine tissue = experiment: Adhesion of CD56-labeled human PBL to uterine tissue from hormone-treated ovariectomized mice; assay type: in vivo, mouse; details: for adhesion of CD56bright human lymphocytes to uterine tissue: uteri from Ovx mice treated with hormone, versus placebo-treated Ovx or virgin
Text: C57BI/6J (Jackson Laboratory, Bar Harbor, Me.) and Balb/c (Taconic, Germantown, N.Y.) mice, aged 7–8 wk were studied. Some females were used for timed matings with the morning of the copulation plug designated gd 0. Other females (n=34) were surgically ovariectomized under Avertin anaesthesia (24). Females were rested 6 days and then received daily subcutaneous injections of either hormone dissolved in sesame oil or sesame oil alone between 9.00–11.00 a.m. as indicated in FIG. 2.^81-84 Some of the Ovx hormone-treated mice also had 10 μl sterile sesame oil injected into a uterine horn to induce decidualization 48 h prior to euthanasia. Ovx mice were euthanized 24 hours after receiving their last injection and vaginal smears were collected and stained with Wright-Giemsa to confirm treatment success. Non-pregnant (NP) controls were virgin females who had never been paired with males. All procedures were performed under appropriate animal utilization protocols. The following samples were collected from each mouse and embedded in OCT (Miles Laboratories) for cryosectioning: i) a pool of 10–12 PLN from subcutaneous and intermuscular sites; ii) a pool of 10–12 intestinal PP; iii) the entire pancreas; and iv) the uterus. For some experiments, the median iliac lymph nodes that drain the pelvic organs, including the uterus, were also dissected. Non-decidualized uteri were trimmed at the ovarian and cervical ends, then incised longitudinally along one side on an axis midway between the mesometrial and anti-mesometrial aspects. The mesometrium (the mesentery suspending the uterus, also known as the broad ligament) was not removed and served as a positional landmark during analyses. For embedding, samples were oriented to produce full thickness longitudinal sections that included both antimesometrial and mesometrial sides. […] The cell suspensions evaluated for adhesive interactions with endothelium were human peripheral blood lymphocytes (PBL) isolated from random (female and male) normal donor buffy coat leukocyte concentrates (American Red Cross, Rochester, N.Y.);^85,68 and TK-1 cells (an alpha integrin^high, L-selectin^low mouse T lymphoma cell line).^85 In selected experiments, human PBL were cultured 6 hr at 37° C. or 40° C. before being applied to tissue sections, as previously described^12. […] Following removal of non adherent cells, glutaraldehyde-fixed specimens were stained with 0.5% toluidine blue and adhesion was scored on 300–500 HEV/PLN or PP specimen or equivalent numbers of small vessels in pancreatic tissue. When CD56-pre-labeled cells were used, fluorescent cells were quantified in 10 high power fields (HPF; one HPF=5 mm^2) at 200× magnification using an Olympus BH2/RFL fluorescence microscope (Olympus Optical, Tokyo, Japan) (10;29). […]

[1] = tested on: high endothelial venules (HEV) of peripheral lymph nodes (PLN); experiment: Adhesion under shear of human PBL to PLN HEV in frozen sections from hormone-treated ovariectomized mice; assay type: in vivo, mouse; details: for L-selectin-dependent and α4 integrin-dependent lymphocyte adhesion to endothelium of secondary lymphoid tissues, compared to pregnancy: hormone-treated Ovx mice versus pregnant mice, shear flow
Text: C57BI/6J (Jackson Laboratory, Bar Harbor, Me.) and Balb/c (Taconic, Germantown, N.Y.) mice, aged 7–8 wk were studied. Some females were used for timed matings with the morning of the copulation plug designated gd 0. Other females (n=34) were surgically ovariectomized under Avertin anaesthesia (24). Females were rested 6 days and then received daily subcutaneous injections of either hormone dissolved in sesame oil or sesame oil alone between 9.00–11.00 a.m. as indicated in FIG. 2.^81-84 Some of the Ovx hormone-treated mice also had 10 μl sterile sesame oil injected into a uterine horn to induce decidualization 48 h prior to euthanasia. Ovx mice were euthanized 24 hours after receiving their last injection and vaginal smears were collected and stained with Wright-Giemsa to confirm treatment success. Non-pregnant (NP) controls were virgin females who had never been paired with males. All procedures were performed under appropriate animal utilization protocols. The following samples were collected from each mouse and embedded in OCT (Miles Laboratories) for cryosectioning: i) a pool of 10–12 PLN from subcutaneous and intermuscular sites; ii) a pool of 10–12 intestinal PP; iii) the entire pancreas; and iv) the uterus. For some experiments, the median iliac lymph nodes that drain the pelvic organs, including the uterus, were also dissected. Non-decidualized uteri were trimmed at the ovarian and cervical ends, then incised longitudinally along one side on an axis midway between the mesometrial and anti-mesometrial aspects. The mesometrium (the mesentery suspending the uterus, also known as the broad ligament) was not removed and served as a positional landmark during analyses. For embedding, samples were oriented to produce full thickness longitudinal sections that included both antimesometrial and mesometrial sides. Uteri from gd 3 were flushed for blastocysts to confirm pregnancy. The cell suspensions evaluated for adhesive interactions with endothelium were human peripheral blood lymphocytes (PBL) isolated from random (female and male) normal donor buffy coat leukocyte concentrates (American Red Cross, Rochester, N.Y.);^85,68 and TK-1 cells (an alpha integrin^high, L-selectin^low mouse T lymphoma cell line).^85 In selected experiments, human PBL were cultured 6 hr at 37° C. or 40° C. before being applied to tissue sections, as previously described^12. In all assays, some cell aliquots were incubated with function blocking mAb specific for human L-selectin (DREG-56, American Type Cell Collection [ATCC], Manassas, Va., 10 μg/ml) or human alpha4 integrin (HP2/1, Coulter Immunology, Hialeah, Fla., 10 μg/ml). To identify adherent human NK cells, PBL aliquots were pre-labeled with anti-CD56 mAb (NKG1, Coulter Immunology, diluted 1:100) followed by rabbit anti-mouse Ig-rhodamine isothiocynate (RITC) Ab as described previously (10;29). Control aliquots were treated with the secondary reagent alone. […] Following removal of non adherent cells, glutaraldehyde-fixed specimens were stained with 0.5% toluidine blue and adhesion was scored on 300–500 HEV/PLN or PP specimen or equivalent numbers of small vessels in pancreatic tissue. When CD56-pre-labeled cells were used, fluorescent cells were quantified in 10 high power fields (HPF; one HPF=5 mm^2) at 200× magnification using an Olympus BH2/RFL fluorescence microscope (Olympus Optical, Tokyo, Japan) (10;29). […]

pancreas endothelium = experiment: Adhesion of PBL or TK-1 cells to pancreas endothelium from hormone-treated ovariectomized mice; assay type: in vivo, mouse; details: tissue from hormone-treated Ovx mice
Text: C57BI/6J (Jackson Laboratory, Bar Harbor, Me.) and Balb/c (Taconic, Germantown, N.Y.) mice, aged 7–8 wk were studied. Some females were used for timed matings with the morning of the copulation plug designated gd 0. Other females (n=34) were surgically ovariectomized under Avertin anaesthesia (24). Females were rested 6 days and then received daily subcutaneous injections of either hormone dissolved in sesame oil or sesame oil alone between 9.00–11.00 a.m. as indicated in FIG. 2.^81-84 Some of the Ovx hormone-treated mice also had 10 μl sterile sesame oil injected into a uterine horn to induce decidualization 48 h prior to euthanasia. […]
The cell suspensions evaluated for adhesive interactions with endothelium were human peripheral blood lymphocytes (PBL) isolated from random (female and male) normal donor buffy coat leukocyte concentrates (American Red Cross, Rochester, N.Y.);^85,68 and TK-1 cells (an alpha integrin^high, L-selectin^low mouse T lymphoma cell line).^85 In selected experiments, human PBL were cultured 6 hr at 37° C. or 40° C. before being applied to tissue sections, as previously described^12. […] Following removal of non adherent cells, glutaraldehyde-fixed specimens were stained with 0.5% toluidine blue and adhesion was scored on 300–500 HEV/PLN or PP specimen or equivalent numbers of small vessels in pancreatic tissue. […]

[2] = tested on: uterine artery and decidua; details: alymphoid mice, daily 100–1000 IU/6 days; cited from earlier work
human lymphocytes = experiment: Effect of blood collection anti-coagulant on adhesion of human lymphocytes to LN from pregnant mice; assay type: cell-based; details: blood collected into the anti-coagulant
Procedure: Male and female subjects of legal age and in good health were recruited to donate up to 30 ml of blood, using venipuncture into evacuated, sterile blood collection tubes. All subjects were informed about the risks of participation in this study and signed approved informed consent forms. The blood was layered onto an equal volume of Histopaque 1.077 (Sigma) and centrifuged at 400×g for 30 min at RT according to manufacturers instructions. The cells at the interface were collected, washed thrice and counted.
The effects of anti-coagulants on adhesive properties of isolated PBL were assessed. Ten ml of blood was collected by venipuncture (40 ml collected per subject) into sterile evacuated tubes containing either Acid Citrate Dextrose (ACD), EDTA, Sodium Citrate, or heparin. Lymphocytes were isolated as described above and applied to sections of LN from pregnant mice. The sections were assessed for lymphocyte adhesion by microscopy.

[3] = tested on: high endothelial venules (HEV) of Peyer's Patches (PP); experiment: Adhesion under shear of TK-1 cells to Peyer's Patch HEV from hormone-treated ovariectomized mice; assay type: in vivo, mouse; details: tissue from Ovx mice treated with hormone, versus placebo or virgin controls
Text: C57BI/6J (Jackson Laboratory, Bar Harbor, Me.) and Balb/c (Taconic, Germantown, N.Y.) mice, aged 7–8 wk were studied. Some females were used for timed matings with the morning of the copulation plug designated gd 0. Other females (n=34) were surgically ovariectomized under Avertin anaesthesia (24). Females were rested 6 days and then received daily subcutaneous injections of either hormone dissolved in sesame oil or sesame oil alone between 9.00–11.00 a.m. as indicated in FIG. 2.^81-84 Some of the Ovx hormone-treated mice also had 10 μl sterile sesame oil injected into a uterine horn to induce decidualization 48 h prior to euthanasia. […] The cell suspensions evaluated for adhesive interactions with endothelium were human peripheral blood lymphocytes (PBL) isolated from random (female and male) normal donor buffy coat leukocyte concentrates (American Red Cross, Rochester, N.Y.);^85,68 and TK-1 cells (an alpha integrin^high, L-selectin^low mouse T lymphoma cell line).^85 In selected experiments, human PBL were cultured 6 hr at 37° C. or 40° C. before being applied to tissue sections, as previously described^12. […] Following removal of non adherent cells, glutaraldehyde-fixed specimens were stained with 0.5% toluidine blue and adhesion was scored on 300–500 HEV/PLN or PP specimen or equivalent numbers of small vessels in pancreatic tissue. […]

In the case of C[C@]12CC[C@@H]3c4ccc(O)cc4CC[C@H]3[C@@H]1CC[C@@H]2O [E2, 17-beta estradiol], the “adhesion of CD56bright human lymphocytes to uterine tissue” value (shortened to “adhesion of CD56bright human lymphocytes”) (uterine tissue) is reported as “equivalent functional changes”, the “percentage of CD56bright cells among lymphocytes adhering to uterine tissue (enrichment)” value (uterine tissue; uterine tissue from mouse receiving hormone therapy, starting preparation 2–3% CD56bright) is reported as 70% and the “L-selectin-dependent and α4 integrin-dependent lymphocyte adhesion to endothelium of secondary lymphoid tissues, compared to pregnancy” value [1] is reported as “fully mimicked the functional gains in adhesion promoted by pregnancy”. The “L-selectin-dependent and α4 integrin-dependent lymphocyte adhesion to endothelium of secondary lymphoid tissues, compared to pregnancy” value ([1]; listed as estrogen) was “equivalent to pregnancy”, the “adhesion of PBL or TK1 cells to pancreas” value (pancreas endothelium) was “no effect” and the “adhesion of PBL or TK1 cells to pancreas” value (pancreas endothelium; listed as estrogen) was “no increase”.

In the case of Tumor necrosis factor-alpha, the “uterine artery modification and decidua” value [2] is listed as “lacked these effects”.

For O=C([O-])CC(O)(CC(=O)[O-])C(=O)[O-].[Na+].[Na+].[Na+] [sodium citrate], the “adhesion of isolated human lymphocytes to LN from pregnant mice” value (human lymphocytes) was “did not interfere with adhesion”.

For CC(=O)[C@H]1CC[C@H]2[C@@H]3CCC4=CC(=O)CC[C@]4(C)[C@H]3CC[C@]12C [P4, progesterone], the “alpha4 integrin/MAdCAM-1-dependent TK-1 cell adhesion to PP HEV” value [3] was “enhanced, progesterone-dependent, and α4 integrin-dependent, binding”, the “adhesion of CD56bright human lymphocytes” value (uterine tissue) was “equivalent functional changes” and the “adhesion of CD56bright human lymphocytes” value (uterine tissue; listed as progesterone) was “promoted”. The “L-selectin-dependent and α4 integrin-dependent lymphocyte adhesion to endothelium of secondary lymphoid tissues, compared to pregnancy” value [1] was “fully mimicked the functional gains in adhesion promoted by pregnancy”, the “L-selectin-dependent and α4 integrin-dependent lymphocyte adhesion to endothelium of secondary lymphoid tissues, compared to pregnancy” value ([1]; listed as progesterone) was “equivalent to pregnancy” and the “L-selectin-dependent adhesion of human PBL to PLN HEV” value ([1]; tissue from Ovx mice treated with hormone, versus placebo (oil) or virgin controls) was “enhanced L-selectin-dependent binding”.

B1: recombinant mulFN-γ: recombinant murine interferon-gamma (protein, UniProt P01580 23-155, looked up)
Interferon gamma: HGTVIESLESLNNYFNSSGIDVEEKSLFLDIWRNWQKDGDMKILQSQIISFYLRLFEVLKDNQAISNNISVIESHLITTFFSNSKAKKDAFMSIAKFEVNNPQVQRQAFNELIRVVHQLLPESSLRKRKRSRC
For B1, the “uterine artery modification and decidua” value [2] is given as “promoted full uterine artery modification and normalized deciduas”.
